Experiment [1] has as its system Hem-A plasma. Briefly: dPT assay, Hem-A plasma in absence of exogenous TFPI. The experiment is classed as biochemical, human. Conditions: dPT. The method, then: (§1) The dPT assay used was a modified standard clinical PT assay (Nordfang et al. (1991) Thromb Haemost 66:464-467; Welsch et al. (1991) Thrombosis Research 64: 213-222). SIMPLASTIN EXCEL thromboplastin reagent (Organon Teknika) was reconstituted with the manufacturer's diluent and further diluted 1:100 in 0.9% saline. The thromboplastin reagent, 25 mM CaCl2, and plasma samples were pre-warmed to 37° C. before initiating the assay. 100 μl of thawed plasma was aliquoted into microcentrifuge tubes. […] 100 μl of the diluted thromboplastin reagent and 100 μl of 25 mM CaCl2 were added to fibrin cups (Fisher) prewarmed to 37° C. 100 μl of plasma (normal or hemophilic) containing the test agent or saline control was added to the fibrin cups containing the thromboplastin reagent and CaCl2 to initiate clotting. The time for plasma clotting was measured with a BBL FIBROSYSTEM fibrometer.
The ability of NASPs to accelerate clotting of factor-deficient plasma in the absence of TFPI supplementation was also tested in dPT assays. A procoagulant response, if observed, may be related to neutralization of endogenous TFPI activity, which is present in human plasma at approximately 100 ng/ml (Nordfang et al., supra), largely associated with lipoprotein or platelets (Broze et al. (1992) Semin. Hematol. 29:159-169; Broze et al. (2003) J. Thromb. Haemost. 1:1671-1675).
The ability of NASPs to accelerate clotting of Hem-A plasma in the absence of exogenous TFPI was tested. Fucoidan or PPS were titrated into Hem A plasma and dPT assays were performed. Additionally, the dose-response to factor VIIa was analyzed as a positive control for amplifying extrinsic pathway activation.

The target in experiment [2] is T1, TFPI (Homo sapiens, UniProt P10646).
T1 construct: purchased American Diagnostica (Stamford, Conn.)
T1 sequence (P10646 29-304): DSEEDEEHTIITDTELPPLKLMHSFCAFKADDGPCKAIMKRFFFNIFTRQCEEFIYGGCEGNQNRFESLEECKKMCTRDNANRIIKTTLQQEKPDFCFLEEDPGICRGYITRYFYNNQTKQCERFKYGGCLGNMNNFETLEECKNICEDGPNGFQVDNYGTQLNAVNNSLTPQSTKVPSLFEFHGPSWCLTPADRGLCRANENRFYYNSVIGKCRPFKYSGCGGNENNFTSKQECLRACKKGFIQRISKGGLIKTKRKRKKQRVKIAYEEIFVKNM
Briefly: dPT assay, inhibition of TFPI activity in Hem-A plasma, TFPI preincubated with NASP. To be noted: dPT; for TFPI-neutralizing activity: FIGS. 4-6 / data not shown. The experiment is classed as biochemical. The procedure:
as §1
Inhibition of TFPI activity by NASPs was assessed in dPT clotting assays with normal or hemophilic plasma and added recombinant TFPI. Diluted recombinant TFPI was preincubated with NASPs for 5 minutes at room temperature before plasma was added. After addition of plasma, the mixture was incubated for an additional 25 minutes followed by dPT initiation.

Experiment [3] relates to Hem-A plasma. Put plainly: dPT assay, anti-coagulant activity of NASPs in Hem-A plasma. The experiment is classed as biochemical, human. Conditions: for clotting time, dPT: Hem-A plasma without NASP 41.5 seconds; for inherent anticoagulant activity: concentrations up to 5000 nM; for prolongation of clotting time: concentrations>5000 nM. The procedure:
as §1
Test compounds were diluted to 100 μM, 10 μM, 2 μM and 200 nM. For each test compound, 12.5 μl of a diluted solution containing the test compound was added to 237.5 μl of Hem-A plasma and incubated at room temperature. 100 μl of plasma containing the test compound was removed for dPT assays of plasma clotting time as described in Example 2.

In experiment [4] the test system is Hem-A plasma containing 1.25% FACT plasma. Put plainly: aPTT assay, NASPs in 1.25% FACT diluted in Hem-A plasma. The class given is biochemical, human. The procedure: Activated Partial Thromboplastin Time (aPTT) Assay The aPTT assay was performed as described previously with modifications (PDR Staff Physicians' Desk Reference. 2004, Anderson Lo, Barrowcliffe, T. W., Holmer, E., Johnson, E. A., Sims, G. E. C. Thromb. Res. 1976; 9:575-580). 25 mM CaCl2 and fibrin cups (Fisher) were pre-warmed to 37° C. 0.1 ml of thawed human plasma (normal or hemophilic) was added to warmed test tubes. 5 μl of saline (e.g. Sigma) or 5 μl of test agent (e.g., NASP) dissolved in saline was incubated with 95 μl of plasma for 30 minutes at room temperature. APTT reagent (e.g. Organon Teknika) was reconstituted in 3 ml distilled water and 0.1 ml of the reconstituted solution containing the APTT reagent was added to each test tube. 0.2 ml of plasma containing the test agent or saline control and aPTT reagent were transferred from test tubes to pre-warmed fibrin cups and incubated for 2-3 minutes. 0.1 ml of pre-warmed 25 mM CaCl2 was added to initiate clotting, and the time for plasma clotting was measured with a BBL FIBROSYSTEM fibrometer.
The effect of NASPs on the clotting time of plasma was determined as follows: 5 μl of a NASP was added to 95 μl of 1.25% FACT diluted in human Hem-A plasma and incubated at room temperature for 30 minutes. aPTT assays were performed to determine plasma clotting time as described in Example 1.

Consider De-N-Sulfated-Heparin [De-N-SH], for which the “acceleration of hemophilic plasma clotting in the absence of TFPI addition” value (shortened to “acceleration”) in experiment [1] is “failed to accelerate clotting times”. For the same substance, the TFPI-neutralizing activity entry in experiment [2] is “did not exhibit any TFPI-neutralizing activity”. In addition, the “clotting time, dPT” value in experiment [3] (10 nM) amounted to 40 s; in experiment [3] (100 nM) it was 38 s; in experiment [3] (500 nM), 38 s; in experiment [3] (5000 nM), 41 s. Also, in experiment [3], the inherent anticoagulant activity result is listed as “failed to show inherent anticoagulant activity”. Moreover, in experiment [3] (dPT), the “prolongation of clotting time” value was “little or no prolongation of clotting time”.
On to “De-N-Sulfated-Acetylated-Heparin [De-N—S-AH]”, for which the “acceleration” value in experiment [1] was “failed to accelerate clotting times”. For the same substance, in experiment [2], the TFPI-neutralizing activity entry is “did not exhibit any TFPI-neutralizing activity”. The “clotting time, dPT” value is 39 s in experiment [3] (10 nM), 37 s in experiment [3] (100 nM), 40 s in experiment [3] (500 nM) and 55 s in experiment [3] (5000 nM). Also, in experiment [3], the inherent anticoagulant activity entry is “failed to show inherent anticoagulant activity”.
For Sodium Heparin, the “effect on clotting time of Hem-A plasma containing TFPI” value in experiment [2] (not shown) is on record as “only prolonged clotting times”. In addition, the “clotting time, dPT” value in experiment [3] (10 nM) is 40 s; in experiment [3] (100 nM), 92 s; in experiment [3] (500 nM), 400 s. For the same substance, the anticoagulant activity entry in experiment [3] (dPT, concentrations exceeding 10 nM) is reported as “markedly anticoagulant”. For the same substance, the “clotting time, aPTT” value in experiment [4] (0.8 nM) was 70 s; in experiment [4] (4 nM), 70 s; in experiment [4] (20 nM), 200 s; in experiment [4] (100 nM) it was “Not clotted”; in experiment [4] (500 nM), “Not clotted”.
For the substance “N-Acetyl-de-O-Sulfated-Heparin [NA-de-O-SH]”, the “acceleration” value in experiment [1] is “failed to accelerate clotting times”. Also, the TFPI-neutralizing activity entry in experiment [2] is “did not exhibit any TFPI-neutralizing activity”. Besides, the “clotting time, dPT” value in experiment [3] (10 nM), in experiment [3] (100 nM), in experiment [3] (500 nM) and in experiment [3] (5000 nM) was 40 s in each case. The inherent anticoagulant activity entry in experiment [3] is given as “failed to show inherent anticoagulant activity”. Besides, the “prolongation of clotting time” value in experiment [3] (dPT) is listed as “little or no prolongation of clotting time”.
